Experimental data as given in ChEMBL document CHEMBL1201862, “PubChem BioAssay data set” (2004).
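Values below derive from 48-hour exposures of cells grown in 96-well plates, with endpoints linearly interpolated between the two concentrations bracketing the appropriate inhibition level. At the GI50, growth is halved.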 Activity calls are given as the source filed them. No stated cut-off is given here; in the data, active = GI50 up to about 1.1 µM and inactive = higher.

What was measured:
Assay in all cases: inhibition of tumour cell growth, NCI panel, 48 h
DLD-1 = tested on: DLD-1
LXFL 529 = tested on: LXFL 529
KM-20L2 = tested on: KM-20L2
M19-MEL = tested on: M19-MEL
XF498 = tested on: XF498
DMS-273 = tested on: DMS-273
DMS-114 = tested on: DMS-114
HOP-18 = tested on: HOP-18
RXF 631 = tested on: RXF 631

Compound	GI50 (DLD-1)	GI50 (LXFL 529)	GI50 (KM-20L2)	GI50 (M19-MEL)	GI50 (XF498)	GI50 (DMS-273)	GI50 (DMS-114)	GI50 (HOP-18)	GI50 (RXF 631)
O=C(NCc1ccncc1)C1COc2cc(-c3cc(=O)c4ccccc4o3)ccc2O1 (centres undefined)	> 100 µM (inactive)	> 100 µM (inactive)	> 100 µM (inactive)	> 100 µM (inactive)	> 100 µM (inactive)				
C[C@]12CC[C@@H]3c4ccccc4CC[C@H]3[C@@H]1CC[C@@H]2O	72.6 µM (inactive)	> 100 µM (inactive)	33.8 µM (inactive)	78 µM (inactive)		51.1 µM (inactive)			
N/C(=N\O)N/N=C\c1c2ccccc2c(Cl)c2ccccc12	5.79 µM (inactive)		2.02 µM (inactive)	6.61 µM (inactive)	16.8 µM (inactive)	1.98 µM (inactive)	3.19 µM (inactive)	2.45 µM (inactive)	
CC(=O)NN1C(=O)C(Cc2ccccc2)c2ccccc21 (centres undefined)	> 100 µM (inactive)		> 100 µM (inactive)	> 100 µM (inactive)	> 100 µM (inactive)	> 100 µM (inactive)	> 100 µM (inactive)	> 100 µM (inactive)	> 100 µM (inactive)
CCOC(=O)C1CCCCN1C(=O)OCc1ccccc1 (centres undefined)	> 100 µM (inactive)	> 100 µM (inactive)		> 100 µM (inactive)	14.2 µM (inactive)	> 100 µM (inactive)	97.7 µM (inactive)		
CC(O)c1ccc(C(O)/C(=N\NC(=O)c2ccncc2)c2nc3ccc([N+](=O)[O-])cc3nc2O)cc1 (centres undefined)	> 100 µM (inactive)	54.6 µM (inactive)	33.3 µM (inactive)	> 100 µM (inactive)	> 100 µM (inactive)	83.8 µM (inactive)	16.7 µM (inactive)		> 100 µM (inactive)
CCSc1nc(-c2ccc(OC)cc2)c(C#N)c(=O)n1C1OCC(OC(C)=O)C(OC(C)=O)C1OC(C)=O (centres undefined)	> 100 µM (inactive)	44.6 µM (inactive)	> 100 µM (inactive)	> 100 µM (inactive)		> 100 µM (inactive)	72.4 µM (inactive)	30 µM (inactive)	
N#C/C(=C\c1ccc2[nH]ccc2c1)C(=O)NCCCCNC(=O)/C(C#N)=C/c1ccc2[nH]ccc2c1	> 100 µM (inactive)	> 100 µM (inactive)	> 100 µM (inactive)	> 100 µM (inactive)	> 100 µM (inactive)	> 100 µM (inactive)	> 100 µM (inactive)		
N#CC(/C(=N\NC(=O)c1ccncc1)C(=O)Nc1ccc([N+](=O)[O-])cc1[N+](=O)[O-])c1nc(-c2ccc(Br)cc2)cs1 (centres undefined)	> 100 µM (inactive)	> 100 µM (inactive)	> 100 µM (inactive)	> 100 µM (inactive)			> 100 µM (inactive)		> 100 µM (inactive)
CC1(C2COC(=O)C2)SCCCS1 (centres undefined)	> 100 µM (inactive)	> 100 µM (inactive)	> 100 µM (inactive)	> 100 µM (inactive)	> 100 µM (inactive)	> 100 µM (inactive)	> 100 µM (inactive)	> 100 µM (inactive)	
O=C1c2ccccc2C2(O)c3cc4ccccc4cc3OC12O (centres undefined)	> 100 µM (inactive)	55.5 µM (inactive)	> 100 µM (inactive)	47.2 µM (inactive)		46.8 µM (inactive)	25.1 µM (inactive)	69.7 µM (inactive)	
COc1ccc(OC)c(NC(=O)C(=O)CC(=O)c2sc(-n3nc(-c4ccccc4)cc3-c3ccccc3)nc2C)c1	> 100 µM (inactive)	> 100 µM (inactive)	> 100 µM (inactive)	> 100 µM (inactive)		> 100 µM (inactive)	> 100 µM (inactive)		> 100 µM (inactive)
CCC1CN2CCc3cc(OC)c(OC)cc3C2CC1CC1c2cc(OC)c(OC)cc2CCN1C(=O)C1CCCN1C(=O)OCc1ccccc1 (centres undefined)	15.6 µM (inactive)	16.3 µM (inactive)	16.7 µM (inactive)	15.5 µM (inactive)	16.6 µM (inactive)	16.3 µM (inactive)	13.9 µM (inactive)	23.1 µM (inactive)	18.5 µM (inactive)
CCOc1ccccc1NC(=O)C(=O)CC(=O)c1sc(Nc2nnc(-c3ccc(Cl)c(Cl)c3)o2)nc1C	88.7 µM (inactive)	> 100 µM (inactive)	> 100 µM (inactive)	> 100 µM (inactive)		59 µM (inactive)	> 100 µM (inactive)	> 100 µM (inactive)	
N#C/C(=C\c1ccccc1F)C(=O)c1ccccc1		> 100 µM (inactive)	> 100 µM (inactive)	> 100 µM (inactive)	> 100 µM (inactive)	> 100 µM (inactive)	> 100 µM (inactive)		
CCN(CC)C(=O)c1c(Cl)cc(N(CC)CC)oc1=O	> 100 µM (inactive)	> 100 µM (inactive)	> 100 µM (inactive)	> 100 µM (inactive)	> 100 µM (inactive)	> 100 µM (inactive)	> 100 µM (inactive)	> 100 µM (inactive)	
C#CCOCn1cnc2c(Cl)ncnc21	> 100 µM (inactive)	> 100 µM (inactive)		> 100 µM (inactive)	> 100 µM (inactive)	> 100 µM (inactive)	41.4 µM (inactive)	> 100 µM (inactive)	> 100 µM (inactive)
CCCCCCC(=O)C/C(CCC(=O)N(Cc1ccccc1)Cc1ccccc1)=N\NC(N)=O		> 100 µM (inactive)	> 100 µM (inactive)	> 100 µM (inactive)	> 100 µM (inactive)	> 100 µM (inactive)	> 100 µM (inactive)	> 100 µM (inactive)	> 100 µM (inactive)
COC1(OC)CC2C(=O)N(Cc3ccccc3)C1C=C2S(=O)(=O)c1ccccc1 (centres undefined)	12.7 µM (inactive)	15.6 µM (inactive)	18.8 µM (inactive)	16 µM (inactive)	17.8 µM (inactive)		17.2 µM (inactive)	17.1 µM (inactive)	
CC(=O)Nc1ccccc1-c1nc2ccccc2nc1-c1ccccc1	> 100 µM (inactive)	> 100 µM (inactive)	> 100 µM (inactive)	> 100 µM (inactive)	> 100 µM (inactive)	> 100 µM (inactive)	> 100 µM (inactive)	0.521 µM (active)	
CC(C)(C)c1ccc2c(c1)S(=O)(=O)Nc1ccccc1NS(=O)(=O)c1cc(C(C)(C)C)ccc1OCCOCCOCCO2	> 100 µM (inactive)			> 100 µM (inactive)		> 100 µM (inactive)	> 100 µM (inactive)	> 100 µM (inactive)	97.3 µM (inactive)
CC(C)C1CC2C(=O)N(c3ccccc3)C(=O)C2c2[nH]c3ccccc3c21 (centres undefined)	42.5 µM (inactive)		73.6 µM (inactive)	56.4 µM (inactive)	23.3 µM (inactive)	9.84 µM (inactive)	20.4 µM (inactive)		
O=C1CCCCC1CN1CCCC1 (centres undefined)	> 100 µM (inactive)	> 100 µM (inactive)	> 100 µM (inactive)	> 100 µM (inactive)	> 100 µM (inactive)	> 100 µM (inactive)	> 100 µM (inactive)		
CN1CC[C@]2(C)c3ccc(O)cc3CC3CCCC1C32C (some centres undefined)	> 100 µM (inactive)	> 100 µM (inactive)	> 100 µM (inactive)	> 100 µM (inactive)	> 100 µM (inactive)		> 100 µM (inactive)	> 100 µM (inactive)	> 100 µM (inactive)
